From the OPERA property sets (Mansouri et al. 2018)

Compared with `CCCC(C)C`, `CCC(C)COC` (stereo not given) is higher in boiling point: 60.2 °C for the first, 90 °C for the second.

Compared with `CCCCOC(=O)CCCC`, `CCCC(N)=O` is higher in boiling point: 186 °C for the first, 216 °C for the second.

Going from `CC(C)CC(=O)Cl` to `CC(C)OC(=O)Cl`, the boiling point falls from 114 °C to 105 °C.

Compared with `CC(C)CCCCCCO`, `CCCCCCCCCCCCCCO` is higher in boiling point: 206 °C for the first, 289 °C for the second.

Compared with `c1ccccc1`, `Cl[SiH2]c1ccccc1` is higher in boiling point: 80 °C for the first, 162 °C for the second.

Going from `CN1CCNCC1` to `C1=COCCC1`, the boiling point falls from 138 °C to 86 °C.

Going from `c1ccc2cc3c(ccc4ccccc43)cc2c1` to `COc1cccc2ccccc12`, the boiling point falls from 438 °C to 269 °C.

First: Cc1ccc(C)c(O)c1C
Second: COC(=O)c1cccc(C)c1O
The boiling point of the first is lower: 226 °C for the first, 235 °C for the second.

Compared with `COCCN(C(=O)CCl)c1c(C)cccc1C`, `Cc1ccc(Cl)c([N+](=O)[O-])c1` is lower in boiling point: 320 °C for the first, 261 °C for the second.

First: CC(C)=C(C)C
Second: CC(=O)c1ccc(C(C)C)cc1
The boiling point of the first is lower: 73.3 °C for the first, 254 °C for the second.

Going from `FC(F)(Br)C(F)(F)C(F)(F)C(F)(F)Br` to `FC(F)(F)c1ccccc1Cl`, the boiling point rises from 97 °C to 152 °C.

First: FC(F)I
Second: Clc1cccc(C(Cl)(Cl)Cl)c1
The boiling point of the first is lower: 21.6 °C for the first, 255 °C for the second.

Going from `C=C[Si](C=C)(C=C)C=C` to `Cc1cc(C)c([N+](=O)[O-])c(C)c1[N+](=O)[O-]`, the boiling point rises from 130 °C to 418 °C.

Compared with `CC#CCCO`, `COC(=O)CCCl` is higher in boiling point: 154 °C for the first, 156 °C for the second.

In the case of `ClCCCCCl`, the boiling point is reported as 161 °C.

First: CCCC(C)C
Second: CCCC(N)=O
The log10 vapour pressure (mmHg) of the first is higher: 2.32 for the first, -2.41 for the second.

First: c1ccccc1
Second: c1ccc2cc3c(ccc4ccccc43)cc2c1
The log10 vapour pressure (mmHg) of the first is higher: 1.98 for the first, -6.68 for the second.

Compared with `Cc1ccc(C)c(O)c1C`, `COCCN(C(=O)CCl)c1c(C)cccc1C` is lower in log10 vapour pressure (mmHg): -1.46 for the first, -4.95 for the second.

`CC(C)=C(C)C` and `CC1(C)OCC(CO)O1` (stereo not given) are within 0.2 log units of each other in log10 vapour pressure (mmHg): 2.1 for the first, 2.03 for the second.

Compared with `CCCCCCCCCCCCCCO`, `ClCCCCCl` is higher in log10 vapour pressure (mmHg): -3.96 for the first, 0.616 for the second.

First: CC(C)OC(=O)Cl
Second: CN(C)c1ccc(N=Nc2ccc([N+](=O)[O-])cc2)cc1
The log10 vapour pressure (mmHg) of the first is higher: 1.57 for the first, -10 for the second.

`FC(F)(F)c1ccccc1Cl` showed a log10 vapour pressure (mmHg) of 0.706.

In the case of `CCCC(C)C`, the ready biodegradability is reported as “readily biodegradable”.
With `c1ccccc1` the ready biodegradability was “readily biodegradable”.
For `Cc1ccc(O)c([N+](=O)[O-])c1`, the ready biodegradability was “not readily biodegradable”.
For `c1ccc2cc3c(ccc4ccccc43)cc2c1`, the ready biodegradability was “not readily biodegradable”.
In the case of `COc1cccc2ccccc12`, the ready biodegradability is reported as “not readily biodegradable”.
In the case of `Cc1ccc(C)c(O)c1C`, the ready biodegradability is reported as “not readily biodegradable”.
For `O=C(O)c1ccccc1[N+](=O)[O-]`, the ready biodegradability was “readily biodegradable”.
In the case of `C=CC(=O)OCC(CO)(COC(=O)C=C)COC(=O)C=C`, the ready biodegradability is reported as “not readily biodegradable”.
With `CCCCCCCCCCCCCCO` the ready biodegradability was “readily biodegradable”.
In the case of `CC(C)OC(=O)Cl`, the ready biodegradability is reported as “not readily biodegradable”.
For `CCCCCC1C(=O)CCC1CC(=O)OC` (stereo not given), the ready biodegradability was “readily biodegradable”.
With `CC(C)(C)OOC(=O)c1ccccc1` the ready biodegradability was “not readily biodegradable”.
With `CC(C)(C#N)N=NC(C)(C)C#N` the ready biodegradability was “not readily biodegradable”.
With `ClCCCCCl` the ready biodegradability was “not readily biodegradable”.

Compared with `CCCCOC(=O)CCCC`, `CCCCCC1C(=O)CCC1CC(=O)OC` (stereo not given) is higher in melting point: -92.8 °C for the first, -10 °C for the second.

Going from `CNC(=O)NC(C)=O` to `CC(C)=C(C)C`, the melting point falls from 180 °C to -74.6 °C.

First: CCN1C[C@]2(COC)[C@H](O)C[C@H](OC)[C@]34C1[C@H]([C@H](OC)[C@H]23)[C@]1(O)[C@H]2[C@@H](O)[C@](O)(C[C@H]24)[C@@H](OC)[C@@H]1O
Second: C[C@]12C=CC(=O)C=C1CC[C@@H]1[C@@H]2CC[C@@]2(C)[C@H]1CC[C@]2(C)O
The melting point of the first is lower: 132 °C for the first, 164 °C for the second.

Going from `CN1CCN(CCCN2c3ccccc3Sc3ccc(Cl)cc32)CC1` to `O=C(CCCN1CCC(n2c(=O)[nH]c3ccccc32)CC1)c1ccc(F)cc1`, the melting point falls from 228 °C to 171 °C.

Compared with `CC(C)CCCCCCO`, `CCCCCCCCCCCCCCO` is lower in melting point: 64.5 °C for the first, 39.5 °C for the second.

Compared with `Nc1ccc(Oc2ccccc2)cc1`, `CC(C)(C)OOC(=O)c1ccccc1` is lower in melting point: 83 °C for the first, 8 °C for the second.

Compared with `NS(=O)(=O)c1cc2c(cc1Cl)N=C(CSCc1ccccc1)NS2(=O)=O`, `O=C(O)c1cccc2cccc(Cl)c12` is lower in melting point: 232 °C for the first, 172 °C for the second.

Going from `Cc1nc2cc(Cl)ccc2s1` to `Cc1ccc(Cl)c([N+](=O)[O-])c1`, the melting point falls from 69 °C to 7 °C.

Going from `CN1CCNCC1` to `C1=COCCC1`, the melting point falls from -6 °C to -70 °C.

Compared with `CC(=O)Oc1ccc([N+](=O)[O-])cc1`, `O=C(O)c1ccccc1[N+](=O)[O-]` is higher in melting point: 78 °C for the first, 148 °C for the second.

Compared with `Cc1ccc(O)c([N+](=O)[O-])c1`, `Nc1cccc([N+](=O)[O-])c1N` is higher in melting point: 36.5 °C for the first, 158 °C for the second.

Compared with `Cc1cc2c(cc1O)[C@@]1(C)CCCC(C)(C)[C@@H]1CC2=O`, `C[C@]12CCC(=O)C[C@@H]1CC[C@@H]1[C@@H]2CC[C@@]2(C)[C@H]1CC[C@]2(C)O` is lower in melting point: 250 °C for the first, 192 °C for the second.

Going from `Cc1ccc(C)c(O)c1C` to `COC(=O)c1cccc(C)c1O`, the melting point falls from 58 °C to 29 °C.

Compared with `COCCN(C(=O)CCl)c1c(C)cccc1C`, `CCN(CC)S(=O)(=O)c1ccc(C(=O)O)cc1` is higher in melting point: 46 °C for the first, 193 °C for the second.

Compared with `CN1C(=O)OC(C)(C)C1=O`, `Cc1cc(C)c([N+](=O)[O-])c(C)c1[N+](=O)[O-]` is higher in melting point: 46 °C for the first, 85.3 °C for the second.

Going from `CSC(=O)c1c(C(F)F)nc(C(F)(F)F)c(C(=O)SC)c1CC(C)C` to `FC(F)(F)c1ccccc1Cl`, the melting point falls from 65 °C to -6 °C.

Going from `COc1cc([N+](=O)[O-])c2ncccc2c1` to `O=[N+]([O-])c1cc(Cl)c(Cl)c(Cl)c1`, the melting point falls from 159 °C to 72.5 °C.

Going from `CN(C)c1ccc(N=Nc2ccc([N+](=O)[O-])cc2)cc1` to `CCN(CC)CCOc1ccc(C(O)(Cc2ccc(Cl)cc2)c2ccc(C)cc2)cc1` (stereo not given), the melting point falls from 236 °C to 103 °C.

Compared with `Nc1nc(=O)cc(Cl)[nH]1`, `Nc1cccc2nsnc12` is lower in melting point: 262 °C for the first, 68 °C for the second.

First: COc1ccc2c(c1OC)C(=O)O[C@@H]2[C@H]1c2c(cc3c(c2OC)OCO3)CCN1C
Second: Clc1cccc(C(Cl)(Cl)Cl)c1
The melting point of the first is higher: 176 °C for the first, 0.6 °C for the second.

First: N[C@H](CCS)C(=O)O (racemic)
Second: CCCC(N)=O
The melting point of the first is higher: 226 °C for the first, 115 °C for the second.

First: FC(F)I
Second: ClCCCCCl
The melting point of the first is lower: -122 °C for the first, -37.3 °C for the second.

Compared with `c1ccccc1`, `c1ccc2cc3c(ccc4ccccc43)cc2c1` is lower in log10 Henry constant (atm·m³/mol): -2.26 for the first, -4.92 for the second.

First: Cc1ccc(O)c([N+](=O)[O-])c1
Second: ClCCCCCl
The log10 Henry constant (atm·m³/mol) of the first is lower: -4.83 for the first, -3.31 for the second.

Compound `c1ccccc1` has a log10 Koa of 2.78.

First: c1ccccc1
Second: c1ccc2cc3c(ccc4ccccc43)cc2c1
The log10 Koc (L/kg) of the first is lower: 1.75 for the first, 5.3 for the second.

`CN(C)C(=O)Nc1ccc(F)cc1` gave a log10 Koc (L/kg) of 1.43.

Going from `c1ccccc1` to `c1ccc2cc3c(ccc4ccccc43)cc2c1`, the log10 biodegradation half-life (days) rises from 0.778 to 2.46.
